The numbers were not newly measured in patent US9878046B2, “Adverse side-effects associated with administration of an anti-hyaluronan agent and methods for ameliorating or preventing the side-effects” (Halozyme, Inc., priority 2010, dated 2018), which cites them from elsewhere.

In one series the test system is B16 melanoma model. The note with it: oral administration at 600 mg/kg/d; cited from earlier work.
The conditions of series [1]: glucocorticoid, route IV or PO as listed; cited from earlier work.

Molecules are shown by their SMILES.

Turning to `Cc1cc(=O)oc2cc(O)ccc12` [4-MU, 4-Methylumbelliferone], the reduction of metastases in the series with B16 melanoma model was 64%.

Consider `C[C@]12CCC(=O)C=C1CC[C@@H]1[C@@H]2[C@@H](O)C[C@@]2(C)[C@H]1CC[C@]2(O)C(=O)CO` [Hydrocortisone], for which, in series [1], the “Equivalent Potency” value is 20 mg.

Regarding `C[C@]12C=CC(=O)C=C1CC[C@@H]1[C@@H]2[C@@H](O)C[C@@]2(C)[C@H]1CC[C@]2(O)C(=O)CO` [Prednisolone], in series [1], the “Equivalent Potency” value is 5 mg.

Regarding `C[C@H]1C[C@@H]2[C@H]([C@@H](O)C[C@@]3(C)[C@H]2CC[C@]3(O)C(=O)COC(=O)CCC(=O)O)[C@@]2(C)C=CC(=O)C=C12` [Methylprednisolone sodium succinate], the “Equivalent Potency” value in series [1] is on record as 4 mg.
